The source of these data is US9856216B2, “Compounds as TNIK, IKKε and TBK1 inhibitors and pharmaceutical composition comprising same” (GREEN CROSS CORPORATION, priority 2015, dated 2018).

This test concerns the target T1, TNIK (Homo sapiens, UniProt Q9UKE5).
T1 construct: purchased Promega V4158
The experiment in a line: ADP-Glo Kinase Assay, inhibition activity on TNIK. The test is classed as biochemical. The conditions noted are these: for pIC50: read-out: TNIK. As for the experimental part:
The inhibition activities on TNIK, IKKε and TBK1 were measured by a luminometer, TNIK/IKKε/TBK1 Kinase Enzyme System (Promega, Ca# V4158; Invitrogen, PR8031B, Promega, Ca# V3991) and ADP-Glo Kinase Assay using ADP-Glo™ Kinase Analysis Kit (Promega, Ca# V9101) and a kinase reaction buffer [40 mM Tris(pH 7.5), 20 mM MgCl2, 0.1 mg/mL BSA] in accordance with the manufacturer's protocol.
On the technique in general: ADP-Glo first removes unused ATP, then detects ADP through luciferase.

pIC50: −log10 of the molar value.

T1 sequence (Q9UKE5 1-367 limits assumed): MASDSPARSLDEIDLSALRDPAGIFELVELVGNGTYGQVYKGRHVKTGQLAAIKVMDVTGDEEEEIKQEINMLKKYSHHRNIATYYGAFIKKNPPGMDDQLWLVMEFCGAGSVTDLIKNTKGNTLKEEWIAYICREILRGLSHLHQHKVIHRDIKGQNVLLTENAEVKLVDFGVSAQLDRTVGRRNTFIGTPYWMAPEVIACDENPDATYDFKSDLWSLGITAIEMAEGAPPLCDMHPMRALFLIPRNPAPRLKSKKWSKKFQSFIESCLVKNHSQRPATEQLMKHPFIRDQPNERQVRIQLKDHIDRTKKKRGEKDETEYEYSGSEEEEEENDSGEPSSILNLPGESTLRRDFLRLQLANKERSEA

With `O=C(Nc1ccc(-c2ccc(Cl)c(Cl)c2)c2c1C(=O)NC2)c1ccccc1` [Example 20, N-(7-(3,4-dichlorophenyl)-3-oxoisoindolin-4-yl)benzamide], the pIC50 is < 4.70. With `O=C(Nc1ccc(-c2cc(Cl)cc(Cl)c2)c2c1C(=O)NC2)c1ccccc1` [Example 21, N-(7-(3,5-dichlorophenyl)-3-oxoisoindolin-4-yl)benzamide], the pIC50 was < 4.70. In the case of `COc1cc(F)ccc1-c1ccc(NC(=O)c2ccccc2)c2c1CNC2=O` [Example 22, N-(7-(4-fluoro-2-methoxyphenyl)-3-oxoisoindolin-4-yl)benzamide], the “TNIK (μM)” value is on record as “Insoluble”. On to `O=C(Nc1ccc(-c2cccc(F)c2Cl)c2c1C(=O)NC2)c1ccccc1` [Example 23, N-(7-(2-chloro-3-fluorophenyl)-3-oxoisoindolin-4-yl)benzamide], for which the pIC50 was 5.05.

In the case of `COc1cccc(-c2ccc(NC(=O)c3ccccc3)c3c2CNC3=O)c1F` [Example 24, N-(7-(2-fluoro-3-methoxyphenyl)-3-oxoisoindolin-4-yl)benzamide], the pIC50 was < 4.70. For `COc1ccc(-c2ccc(NC(=O)c3ccccc3)c3c2CNC3=O)c(OC)c1OC` [Example 25, N-(3-oxo-7-(2,3,4-trimethoxyphenyl)isoindolin-4-yl)benzamide], the “TNIK (μM)” value is recorded as “Insoluble”. For the compound `Cc1ccc(-c2ccc(NC(=O)c3ccccc3)c3c2CNC3=O)cc1C` [Example 26, N-(7-(3,4-dimethylphenyl)-3-oxoisoindolin-4-yl)benzamide], the pIC50 was 5.42. Turning to `Cc1cc(C)cc(-c2ccc(NC(=O)c3ccccc3)c3c2CNC3=O)c1` [Example 27, N-(7-(3,5-dimethylphenyl)-3-oxoisoindolin-4-yl)benzamide], the pIC50 is 5.52. Regarding `Cc1cccc(C)c1-c1ccc(NC(=O)c2ccccc2)c2c1CNC2=O` [Example 28, N-(7-(2,6-dimethylphenyl)-3-oxoisoindolin-4-yl)benzamide], the pIC50 is 5.77.

With `CCc1ccc(NC(=O)c2ccccc2)c2c1CNC2=O` [Example 29, N-(7-ethyl-3-oxoisoindolin-4-yl)benzamide], the pIC50 is 5.74. For the compound `O=C(Nc1ccc(-c2cc(F)cc(F)c2)c2c1C(=O)NC2)c1ccccc1` [Example 30, N-(7-(3,5-difluorophenyl)-3-oxoisoindolin-4-yl)benzamide], the pIC50 was < 4.70. With `Cc1ccc(C)c(-c2ccc(NC(=O)c3ccccc3)c3c2CNC3=O)c1` [Example 31, N-(7-(2,5-dimethylphenyl)-3-oxoisoindolin-4-yl)benzamide], the pIC50 was 5.80. In the case of `O=C(Nc1ccc(-c2cc(F)ccc2F)c2c1C(=O)NC2)c1ccccc1` [Example 32, N-(7-(2,5-difluorophenyl)-3-oxoisoindolin-4-yl)benzamide], the pIC50 was 6.00. For the compound `O=C(Nc1ccc(-c2ccc(F)c(F)c2)c2c1C(=O)NC2)c1ccccc1` [Example 33, N-(7-(3,4-difluorophenyl)-3-oxoisoindolin-4-yl)benzamide], the pIC50 was 5.43. In the case of `O=C(Nc1ccc(-c2cccc(F)c2F)c2c1C(=O)NC2)c1ccccc1` [Example 34, N-(7-(2,3-difluorophenyl)-3-oxoisoindolin-4-yl)benzamide], the pIC50 is 6.27. As to `CCCCc1ccc(NC(=O)c2ccccc2)c2c1CNC2=O` [Example 35, N-(7-butyl-3-oxoisoindolin-4-yl)benzamide], the pIC50 was 5.07. Regarding `CCCc1ccc(NC(=O)c2ccc(F)cc2)c2c1CNC2=O` [Example 36, 4-fluoro-N-(3-oxo-7-propylisoindolin-4-yl)benzamide], the pIC50 was < 4.70.

Turning to `Cc1ccc(NC(=O)c2ccccc2)c2c1CNC2=O` [Example 37, N-(7-methyl-3-oxoisoindolin-4-yl)benzamide], the pIC50 was 5.21. `Cc1ccc(-c2ccc(NC(=O)c3ccccc3)c3c2CNC3=O)c(C)c1` [Example 38, N-(7-(2,4-dimethylphenyl)-3-oxoisoindolin-4-yl)benzamide]: the pIC50 was 5.77. With `CCc1ccc(-c2ccc(NC(=O)c3ccccc3)c3c2CNC3=O)cc1` [Example 39, N-(7-(4-ethylphenyl)-3-oxoisoindolin-4-yl)benzamide], the pIC50 was 5.21.

In the case of `CC(C)Oc1ccc(-c2ccc(NC(=O)c3ccccc3)c3c2CNC3=O)cc1` [Example 40, N-(7-(4-isopropoxyphenyl)-3-oxoisoindolin-4-yl)benzamide], the pIC50 was < 4.70. On the same count and under the same terms, the result for `CSc1ccc(-c2ccc(NC(=O)c3ccccc3)c3c2CNC3=O)cc1` [Example 41, N-(7-(4-(methylthio)phenyl)-3-oxoisoindolin-4-yl)benzamide] reads 5.92; that for `CCc1cccc(-c2ccc(NC(=O)c3ccccc3)c3c2CNC3=O)c1` [Example 42, N-(7-(3-ethylphenyl)-3-oxoisoindolin-4-yl)benzamide], 5.43; that for `CCCOc1ccccc1-c1ccc(NC(=O)c2ccccc2)c2c1CNC2=O` [Example 43, N-(3-oxo-7-(2-propoxyphenyl)isoindolin-4-yl)benzamide], < 4.70. Regarding `CCCOc1cccc(-c2ccc(NC(=O)c3ccccc3)c3c2CNC3=O)c1` [Example 44, N-(3-oxo-7-(3-propoxyphenyl)isoindolin-4-yl)benzamide], the pIC50 was < 4.70. With `CCCCOc1ccccc1-c1ccc(NC(=O)c2ccccc2)c2c1CNC2=O` [Example 45, N-(7-(2-butoxyphenyl)-3-oxoisoindolin-4-yl)benzamide], the pIC50 was < 4.70. Consider `CCCCOc1cccc(-c2ccc(NC(=O)c3ccccc3)c3c2CNC3=O)c1` [Example 46, N-(7-(3-butoxyphenyl)-3-oxoisoindolin-4-yl)benzamide], for which the pIC50 was < 4.70. As for `CS(=O)(=O)c1ccccc1-c1ccc(NC(=O)c2ccccc2)c2c1CNC2=O` [Example 47, N-(7-(2-(methylsulfonyl)phenyl)-3-oxoisoindolin-4-yl) benzamide], the pIC50 is < 4.70.

For `COc1c(F)cccc1-c1ccc(NC(=O)c2ccccc2)c2c1CNC2=O` [Example 48, N-(7-(3-fluoro-2-methoxyphenyl)-3-oxoisoindolin-4-yl) benzamide], the pIC50 is 6.31. Consider `COc1cc(Cl)ccc1-c1ccc(NC(=O)c2ccccc2)c2c1CNC2=O` [Example 49, N-(7-(4-chloro-2-methoxyphenyl)-3-oxoisoindolin-4-yl) benzamide], for which the pIC50 was < 4.70. The same measure, in the same setting: the same measure for `O=C(Nc1ccc(-c2cccc(Cl)c2F)c2c1C(=O)NC2)c1ccccc1` [Example 50, N-(7-(3-chloro-2-fluorophenyl)-3-oxoisoindolin-4-yl)benzamide]: < 4.70. Consider `O=C(Nc1ccc(-c2cncs2)c2c1C(=O)NC2)c1ccccc1` [Example 51, N-(3-oxo-7-(thiazol-5-yl)isoindolin-4-yl)benzamide], for which the pIC50 was 6.36.

With `O=C(Nc1ccc(-c2cscn2)c2c1C(=O)NC2)c1ccccc1` [Example 52, N-(3-oxo-7-(thiazol-4-yl)isoindolin-4-yl)benzamide], the pIC50 was 5.55. For the compound `O=C(Nc1ccc(-c2nccs2)c2c1C(=O)NC2)c1ccccc1` [Example 53, N-(3-oxo-7-(thiazol-2-yl)isoindolin-4-yl)benzamide], the pIC50 was 5.63.

With `O=C(Nc1ccc(-c2c[nH]cn2)c2c1C(=O)NC2)c1ccccc1` [Example 54, N-(7-(1H-imidazol-4-yl)-3-oxoisoindolin-4-yl)benzamide], the pIC50 was 5.42. For the compound `O=C(Nc1ccc(-c2cn[nH]c2)c2c1C(=O)NC2)c1ccccc1` [Example 55, N-(3-oxo-7-(1H-pyrazol-4-yl)isoindolin-4-yl)benzamide], the pIC50 was 5.34. For the compound `Cn1cncc1-c1ccc(NC(=O)c2ccccc2)c2c1CNC2=O` [Example 56, N-(7-(1-methyl-1H-imidazol-5-yl)-3-oxoisoindolin-4-yl) benzamide], the pIC50 is 5.66.

Consider `Cn1cc(-c2ccc(NC(=O)c3ccccc3)c3c2CNC3=O)cn1` [Example 57, N-(7-(1-methyl-1H-pyrazol-4-yl)-3-oxoisoindolin-4-yl) benzamide], for which the pIC50 was 5.66. Still for that read-out and setting: the same measure for `O=C(Nc1ccc(-c2ncn[nH]2)c2c1C(=O)NC2)c1ccccc1` [Example 58, N-(3-oxo-7-(1H-1,2,4-triazol-5-yl)isoindolin-4-yl)benzamide]: 5.57; for `Cn1ncnc1-c1ccc(NC(=O)c2ccccc2)c2c1CNC2=O` [Example 59, N-(7-(1-methyl-1H-1,2,4-triazol-5-yl)-3-oxoisoindolin-4-yl) benzamide]: < 4.70; for `COc1ccc(-c2ccc(N)c3c2CNC3=O)cc1` [Example 60, 7-Amino-4-(4-methoxyphenyl)isoindolin-1-one]: < 4.70. `Nc1ccc(-c2ccc(F)cc2)c2c1C(=O)NC2` [Example 61, 7-Amino-4-(4-fluorophenyl)isoindolin-1-one]: the “TNIK (μM)” value is on record as “Insoluble”. As to `Nc1ccc(-c2ccc(Cl)cc2)c2c1C(=O)NC2` [Example 62, 7-Amino-4-(4-chlorophenyl)isoindolin-1-one], the pIC50 is < 4.70. `Cc1ccc(-c2ccc(N)c3c2CNC3=O)cc1` [Example 63, 7-Amino-4-(p-tolyl)isoindolin-1-one]: the pIC50 was < 4.70. In the case of `CC(=O)c1ccc(-c2ccc(N)c3c2CNC3=O)cc1` [Example 64, 4-(4-Acetylphenyl)-7-aminoisoindolin-1-one], the pIC50 was < 4.70. On to `Nc1ccc(-c2ccncc2)c2c1C(=O)NC2` [Example 65, 7-Amino-4-(pyridin-4-yl)isoindolin-1-one], for which the pIC50 is < 4.70. For the compound `Cc1ccccc1C(=O)Nc1ccc(-c2ccccc2)c2c1C(=O)NC2` [Example 87, 2-Methyl-N-(3-oxo-7-phenylisoindolin-4-yl)benzamide], the pIC50 is 4.84. `Cc1cccc(C(=O)Nc2ccc(-c3ccccc3)c3c2C(=O)NC3)c1` [Example 88, 3-Methyl-N-(3-oxo-7-phenylisoindolin-4-yl)benzamide]: the pIC50 was 5.55.
